Results: article PMC5799093, “Proceedings of Réanimation 2018, the French Intensive Care Society International Congress” (Annals of Intensive Care, 2018)
Where two headings read alike, the source gives them in different places.

Legend:
[1] = Acute amitriptylin and clomipramine poisonings in the ICU, clinical features and pharmacokinetics; conditions: median; AMI [0.4 + 1.4], dose 1.5 g; CLO [0.5 + 1.4], dose 3.0 g
[2] = Delayed neuropsychiatric sequelae after carbon monoxide poisoning in outpatients
[3] = Population pharmacokinetics of cefotaxime and desacetylcefotaxime in critically ill children (P-168); format: in vivo, human (children)
Protocol: Patients and methods: All children aged less than 18 years, weighing more than 2.5 kg, and receiving intermittent CTX infusions were included. CTX and D-CTX were quantified by high performance liquid chromatography. Pharmacokinetics were described using the non-linear mixed effect modelling software MONOLIX. Monte Carlo simulations were used to optimize dosing regimen, in order to maintain serum concentration above the target concentration (defined at 2 mg L^−1) 100% of the time during the dosing interval.

[4] = system: Extended spectrum betalactamase producing Enterobacteriaceae; experiment: Antibiotic resistance of ESBL producing Enterobacteriaceae (P-147); format: cell-based; conditions: isolates 2015 and 2016
[5] = Residual serum concentrations of piperacillin and amoxicillin and neurological disorders (HPLC MS); format: in vivo, critically ill patients
Protocol: Patients and methods: This study was carried out retrospectively during the period 01.01.2015 to 08.02.2017, in patients hospitalized in the medical ICU-CHU Rouen with PTM.

[6] = Beta-lactam plasma concentrations in children with severe sepsis or septic shock (HPLC); conditions: current standard dosing
Candida isolates = experiment: Antifungal susceptibility of Candida isolates, Fungitest broth dilution; format: cell-based, Candida spp.
Protocol: Patients and methods: Our study is a retrospective review of 17 severely burned patients admitted to the burn unit of the Ben Arous Traumatology and Burns Center with one or more positive culture sites for Candida, during the 16-month period from May 2016 through August 2017. A total of 42 isolates were thus obtained. […] Since echinocandin and anidulafungine were recently introduced in Tunisia, the susceptibility to these antifungal classes was tested for only one patient from our cohort.

[7] = system: carbapenemase-producing Enterobacteriaceae; experiment: Antibiotic susceptibility of Enterobacteriaceae with decreased susceptibility to carbapenems; format: cell-based; conditions: for resistant rate: CA-SFM 2015
[8] = Cyproheptadine poisoning, retrospective series (P-180); format: in vivo, human
Protocol: Patients and methods: Retrospective study was performed between January 2008 and APRIL 2017. Epidemiological data clinical data and outcome were reviewed.

[9] = system: cardiogenic shock patients; experiment: OPTIMA CC double-blind randomized trial, epinephrine vs norepinephrine in cardiogenic shock after myocardial infarction; format: in vivo
From the text: Patients and methods: Multicenter, double-blind, randomized trial in 8 french ICU. Cardiogenic shock patients due to myocardial infarction treated by PCI were randomized to receive epinephrine or norepinephrine to maintain MAP at 70 mmHg. Dobutamine was introduced at the physician discretion according to a combination of parameters—echocardiographic parameters, cardiac index, lactate clearance, SVO2 and Swan-Ganz derived parameters.

[10] = system: patients with severe alcohol withdrawal syndrome; experiment: Continuous-infusion midazolam for severe alcohol withdrawal syndrome, complications; format: in vivo
From the text: Patients and methods: We retrospectively reviewed the medical records of all patients hospitalized for alcohol withdrawal syndrome between 2006 and 2016. Only those who received continous-infusion of BZD, associated with close clinical monitoring and the evaluation of RASS and Cushman scores, without systematic recourse to mechanical ventilation, were included.

[11] = Acute olanzapine poisoning in ICU (P-182); format: in vivo, human
Protocol: Patients and methods: Retrospective analysis of all cases of olanzapine intoxication admitted in 12-bed teaching ICU between January 2013 and Decembre 2017. Inclusion criteria were patient age ≥ 14 year, acute olanzapine intoxication, the intoxication severity was assessed by the Poisoning Severity Score (PSS) of the European Association of Poison Centres and Clinical Toxicologists. The evaluation of electrocardiograms was performed in the first day of hospitalization. The durations of QRS and QTc was measured and arrhythmias and conduction disorders was identified.

Acinetobacter baumannii = format: cell-based
Protocol: Patients and methods: From January 2012 to December 2016, a total of 2,182 non repetitive strains were isolated from blood cultures. Incubation of blood culture vials and the detection of bacterial growth were performed by the BACTEC system. All Isolated organisms were identified on the basis of standard microbiological techniques. Antibiotic susceptibility testing was carried out by the agar disk diffusion method, and susceptibility results were interpreted using clinical breakpoints according to CA-SFM 2013 and 2015 guidelines. Data were analyzed using the SIR-system. Minimum inhibitory concentrations of colistin, imipenem and vancomycin were determined using the Etest® method (bioMérieux).

Pseudomonas aeruginosa = experiment: Disk diffusion susceptibility of P. aeruginosa isolated from burned patients (P-48); format: cell-based; conditions: 485 strains from burned patients 2012-2015, disk diffusion, FSM breakpoints
anti-Xa activity = experiment: Pharmacokinetics of unfractionated heparin (anti-Xa activity) in children under ECMO (P-171); format: in vivo, human (children)
Protocol: Patients and methods: This is a single center retrospective study from March 2015 to September 2016. Were included children (< 18 years old age) who were under ECMO for refractory hemodynamic failure related to (i) myocarditis or (ii) septic shock. Anti-Xa activity time-courses were analyzed using a non linear mixed effects approach with Monolix version 2016R.

[12] = median (range), 49 children, one compartment model

CN(C)CCCN1c2ccccc2CCc2ccc(Cl)cc21 [CLO, clomipramine]
plasma concentration [1]: 700 ng/mL

[C-]#[O+] [CO, Carbon monoxide]
mean serum HbCO level on admission ([2]; 83 patients): 15 ± 8%
persistent headaches ([2]; among identified disorders): 39%
anxiety-depressive disorders ([2]; in vivo): 39%
cognitive disorders ([2]; in vivo): 22%
irritability ([2]; in vivo): 22%
mean onset time of symptoms ([2]; in vivo): 5 ± 3 months
prevalence of patients with delayed neuropsychiatric sequelae ([2]; telephone contact at 16 ± 9 months): 26%

CO/N=C(\C(=O)N[C@@H]1C(=O)N2C(C(=O)O)=C(COC(C)=O)CS[C@H]12)c1csc(N)n1 [CTX, cefotaxime]
target attainment of calculated residual concentrations ([3]; intermittent infusions, target 2 mg L^−1): no patient succeeds to attain the target
volume of distribution [3, 12]: 3.3 (0.85–20) L
CTX clearance ([3]; median (range), 49 children, one compartment model, MONOLIX, HPLC): 0.97 (0.3–7.1) L h^−1

CO/N=C(\C(=O)N[C@@H]1C(=O)N2C(C(=O)O)=C(CO)CS[C@H]12)c1csc(N)n1 [D-CTX, desacetylcefotaxime]
D-CTX clearance [3, 12]: 3.2 (0.6–16.3) L h^−1

CNC(C)C1CCC(N)C(OC2C(N)CC(N)C(OC3OCC(C)(O)C(NC)C3O)C2O)O1 (stereo not shown) [Gentamicin]
rate of resistance [4]: 50%

CCn1cc(C(=O)O)c(=O)c2cc(F)c(N3CCNCC3)cc21 [Norfloxacin]
rate of resistance [4]: 89.13%

CC1(C)S[C@@H]2[C@H](NC(=O)[C@H](N)c3ccc(O)cc3)C(=O)N2[C@H]1C(=O)O [amoxicillin]
residual concentration associated with occurrence of neurological disorders ([5]; 80% specificity and sensitivity): greater than 40 mg L^−1
residual serum concentration, patients with neurological disorders or wakefulness delays ([5]; HPLC MS): 157 ± 72 mg L^−1
residual serum concentration, patients without neurological disorders ([5]; HPLC MS): 35.8 ± 13.0 mg L^−1
patients with insufficient plasma concentration [6]: 86%

C[C@@H]1[C@H](O)[C@@H](C)/C=C/C=C/C=C/C=C/C=C/C=C/C=C/[C@H](O[C@@H]2O[C@H](C)[C@@H](O)[C@H](N)[C@@H]2O)C[C@@H]2O[C@](O)(C[C@@H](O)C[C@@H](O)[C@H](O)CC[C@@H](O)C[C@@H](O)CC(=O)O[C@H]1C)C[C@H](O)[C@H]2C(=O)O [amphotericin B]
resistant strains (Candida isolates): Only one strain was resistant

C[C@H]1[C@H](NC(=O)/C(=N\OC(C)(C)C(=O)O)c2csc(N)n2)C(=O)N1S(=O)(=O)O [aztreonam]
resistant rate [7]: 67%

Cc1nnc(SCC2=C(C(=O)O)N3C(=O)[C@@H](NC(=O)Cn4cnnn4)[C@H]3SC2)s1 [cefazoline, cefazolin]
patients with insufficient plasma concentration [6]: 25%

CO/N=C(\C(=O)N[C@@H]1C(=O)N2C(C(=O)O)=C(COC(C)=O)CS[C@H]12)c1csc(N)n1 [cefotaxime]
resistant rate [7]: 97%

CN1CCC(=C2c3ccccc3C=Cc3ccccc32)CC1 [cyproheptadine]
delirium ([8]; 56 patients): 20%
outcome ([8]; 56 patients): favorable in all cases
patients with peripheral anti-cholinergic symptoms ([8]; 56 patients): Forty two
median delay of symptoms onset ([8]; 56 patients, mean ingested dose 94 mg, range [1–14]): 3 h
correlation between coma and assumed ingested dose ([8]; in vivo): no correlation
mean duration of mechanical ventilation ([8]; six ventilated patients, ± 4): 17 h

CNC[C@H](O)c1ccc(O)c(O)c1 [epinephrine]
arterial pH and lactate ([9]; H2 to H24): lactic acidosis from H2 to H24
cardiac index and cardiac power index ([9]; epinephrine vs norepinephrine group): increased significantly more
ECMO use ([9]; in vivo): 11%
cardiac double product (surrogate of myocardial oxygen consumption) ([9]; in vivo): increased
heart rate evolution ([9]; in vivo): increased significantly
incidence of arrhythmia ([9]; in vivo): 41%
mortality ([9]; in vivo): 52%
incidence of refractory shock ([9]; titrated to MAP 70 mmHg, epinephrine n = 27, norepinephrine n = 30): 37%

OC(Cn1cncn1)(Cn1cncn1)c1ccc(F)cc1F [fluconazole]
intermediate isolates (Candida isolates): 11.1%
resistant isolates (Candida isolates): 11.1%
susceptible isolates (Candida isolates): 77.8%

C[C@@H]1O[C@@H]1P(=O)(O)O [fosfomycin]
susceptibility ([7]; colistin excepting with Proteus): 65%

CCC(C)n1ncn(-c2ccc(N3CCN(c4ccc(OCC5COC(Cn6cncn6)(c6ccc(Cl)cc6Cl)O5)cc4)CC3)cc2)c1=O (stereo not shown) [itraconazole]
intermediate isolates (Candida isolates): 81.5%

CC(=O)N1CCN(c2ccc(OCC3COC(Cn4ccnc4)(c4ccc(Cl)cc4Cl)O3)cc2)CC1 (stereo not shown) [ketoconazole]
intermediate isolates (Candida isolates): 40.7%

C[C@@H](O)[C@H]1C(=O)N2C(C(=O)O)=C(S[C@@H]3CN[C@H](C(=O)N(C)C)C3)[C@H](C)[C@H]12 [meropenem]
patients with insufficient plasma concentration [6]: 50%

Clc1ccc(COC(Cn2ccnc2)c2ccc(Cl)cc2Cl)c(Cl)c1 (stereo not shown) [miconazole]
intermediate isolates (Candida isolates): 33.3%

Cc1ncc2n1-c1ccc(Cl)cc1C(c1ccccc1F)=NC2 [midazolam]
OR of intubation and or pneumonia for maximum perfusion velocity > 8 mg h ([10]; IC 95% (2.11–168.15)): 18.83
patients developing pneumonia and or requiring intubation ([10]; continuous infusion, median maximum 8 mg h, n = 104): 12%
cardiac arrest and death ([10]; n = 104): No cardiac arrest and death was observed
patients with seizures ([10]; n = 104): 8%

Cc1cc2c(s1)Nc1ccccc1N=C2N1CCN(C)CC1 [olanzapine, Olanzapine]
mean duration of prolonged QTc ([11]; 5 cases): 460 ± 28 ms
Poisoning Severity Score moderate, monointoxication ([11]; 8 patients, 3 cases): 37.5%
Poisoning Severity Score severe, monointoxication ([11]; 8 patients, 4 cases): 50%
Poisoning Severity Score fatal ([11]; 24 patients): 1 case
Poisoning Severity Score moderate ([11]; 24 patients, 9 cases): 37.5%
Poisoning Severity Score severe ([11]; 24 patients, 14 cases): 58%
agitation ([11]; n = 8 of 24): 33%
miosis ([11]; n = 15 of 24): 62%
tachycardia ([11]; n = 15 of 24): 62%
Coma Glosgow Scale < 12 ([11]; of 24): 14 cases
mechanical ventilation required ([11]; of 24): 58%
prolonged QTc ([11]; of 24): 5 cases
QRS enlargement on the ECG (human, in vivo): 10%
QT widening (human, in vivo): 23%
abolished tendon reflexes (human, in vivo): 31%
increased tendon reflexes (human, in vivo): 28%
mydriasis (human, in vivo): 10%
myorelaxation (human, in vivo): 68%
myosis (human, in vivo): 39%
seizures (human, in vivo): No seizure was observed
plasma concentration on admission (median [0.185 + 0.820], ingested dose 200 mg [110 + 333], n = 71): 310 ng/mL
Glasgow coma score (median [percentiles 25 + 75], multidrug ingestion): 4 [3 + 8]
elimination in overdose (non-compartmental analysis): prolonged olanzapine elimination at elevated concentrations
died in the ICU (patients with pre-hospital cardiac arrest): 4%

CO[C@H]1/C=C/O[C@@]2(C)Oc3c(C)c(O)c4c(O)c(c(/C=N/N5CCN(C)CC5)c(O)c4c3C2=O)NC(=O)/C(C)=C\C=C\[C@H](C)[C@H](O)[C@@H](C)[C@@H](O)[C@@H](C)[C@H](OC(C)=O)[C@@H]1C [rifampicin]
resistance rate (Acinetobacter baumannii; by 2016): 67%
resistance rate (Acinetobacter baumannii; in 2014): 15%

CC1(C)S[C@@H]2[C@H](NC(=O)[C@H](C(=O)O)c3ccsc3)C(=O)N2[C@H]1C(=O)O [ticarcillin]
strains resistant (Pseudomonas aeruginosa): 69%

unfractionated heparin
typical clearance (CLTYP) (anti-Xa activity; 12 children under ECMO, one-compartment, scaled to 70 kg): 2.42 L/h
typical volume of distribution (VTYP) (anti-Xa activity; 12 children under ECMO, scaled to 70 kg): 5.1 L
samples with anti-Xa activity > 0.6 IU mL (anti-Xa activity; 37 of 214 samples): 17%
samples with anti-Xa activity < 0.4 IU mL (anti-Xa activity; 81 of 214 samples): 38%
samples with anti-Xa activity in the target (0.4 to 0.6 IU mL) (anti-Xa activity; 96 of 214 samples, 12 children): 45%
bleeding (anti-Xa activity; of 12): 2 children
thrombosis (anti-Xa activity; of 12): 4 children
